# System: β-catenin-TCF-mediated reporter transcription activity in Colo 205 cells
# Experiment: Colo 205 reporter assay (TCF/LEF luciferase)
# Type: cell-based
# Settings: Colo 205 TCF/LEF luciferase reporter, five hours after addition of compound; read-out: TCF reporter Colo205 IC50
# Description: The compounds of the invention described herein were screened using the assay procedure for β-catenin-TCF-mediated reporter transcription activity described below.
# Reporter cell lines were generated by stably transfecting cells of cancer cell lines (e.g., colon cancer) with a plasmid reporter construct (From SABiosciences, a QIAGEN company) that includes TCF/LEF promoter driving expression of the firefly luciferase gene. TCF/LEF reporter constructs were made in which TCF/LEF promoter, a promoter with optimal number of TCF/LEF binding sites designed by SABiosceinces, was linked upstream of the firefly luciferase gene. This construct could also include a puromycin resistance gene as a selectable marker. This construct could also be used to stably transfect Colo 205 cells, a colon cancer cell line having a mutated APC gene that causes a constitutively active β-catenin. A control cell line was generated using another plasmid construct containing the luciferase gene under the control of a CMV basal promoter which is not activated by p-catenin.
# Colo 205 Cultured cells with a stably transfected reporter construct were plated at approximately 10,000 cells per well into 384 well multi-well plates for twenty four hours. The testing compounds were then added to the wells in 2-fold serial dilutions using a twenty micromolar top concentration. A series of control wells for each cell type received only compound solvent. Five hours after the addition of compound, reporter activity for luciferase was assayed, by addition of the SteadyGlo luminescence reagent (Promega). The reporter luminescence activity was measured using Pherastar plate reader (BMG Labtech). Readings were normalized to DMSO only treated cells, and normalized activities were then used in the IC50 calculations. The Colo 205 reporter assay data are summarized in Table 45: A<0.3 μM; 0.3 μM≤B<1.0 μM; 1.0 μM≤C<5.0 μM; D≥5.0 μM
# Colo 205 reporter assay data has also been obtained for certain R-isomers of Formula (I) wherein R^4 is —H or -D, and wherein the carbon to which R^3 and R^4 are attached (C2 carbon of Formula (X)) has R stereochemistry; such epimeric compounds are represented using the suffix “B” attached to the Compound described herein having the S stereochemistry at the carbon to which R^3 and R^4 are attached: […]
row,IC50,SMILES
1,≥ 5000 nM,"C[C@H]1C(=O)Nc2cnc(NC3CC(C)(OCc4cc(F)c(F)c(F)c4)C3)nc2N1C (stereo in doubt) [Compound 289, (S)-7,8-dimethyl-2-((cis-3-methyl-3-((3,4,5-trifluorobenzyl)oxy)cyclobutyl)amino)-7,8-dihydropteridin-6(5H)-one]"
2,300 to 1000 nM,"COC1(C2C(=O)Nc3c(C)nc(NCc4cnn(Cc5cc(C(F)(F)F)nn5C)c4)nc3N2C)CC1 (centres unmarked) [Compound 666, 7-(1-methoxycyclopropyl)-4,8-dimethyl-2-(((1-((1-methyl-3-(trifluoromethyl)-1H-pyrazol-5-yl)methyl)-1H-pyrazol-4-yl)methyl)amino)-7,8-dihydropteridin-6(511)-one]"

# Same assay, conditions: Homo sapiens, 5 h; Colo 205 TCF/LEF luciferase reporter, five hours after addition of compound; read-out: TCF reporter Colo205 IC50
row,SMILES,IC50
1,"Cc1nc(N[C@H]2C[C@H](NC(=O)Oc3cc(F)c(F)c(F)c3)C2)nc2c1NC(=O)[C@H](C)N2C [Compound 483, 3,4,5-trifluorophenyl (trans-3-(((S)-4,7,8-trimethyl-6-oxo-5,6,7,8-tetrahydropteridin-2-yl)amino)cyclobutyl)carbamate]",1000 to 5000 nM

# Same assay, conditions: Homo sapiens, COLO 205, 5 h, Colo 205 TCF/LEF luciferase reporter, five hours after addition of compound; read-out: TCF reporter Colo205 IC50
row,IC50,SMILES
1,1000 to 5000 nM,"Cc1nc(N[C@H]2C[C@@H](NC(=O)N(C)C3CCC(F)(F)CC3)C2)nc2c1NC(=O)[C@H](C(C)C)N2C [Compound 538, 1-(4,4-difluorocyclohexyl)-3-(cis-3-(((S)-7-isopropyl-4,8-dimethyl-6-oxo-5,6,7,8-tetrahydropteridin-2-yl)amino)cyclobutyl)-1-methylurea]"
2,1000 to 5000 nM,"Cc1nc(N[C@H]2C[C@H](Oc3ccc(F)nc3)C2)nc2c1N(C)C(=O)[C@H](C)N2C [Compound 358, (7S)-2-((trans 3-((6-fluoropyridin-3-yl)oxy)cyclobutyl)amino)-4,5,7,8-tetramethyl-7,8-dihydropteridin-6(5H)-one]"
3,< 300 nM,"Cc1nc(NCc2cnn(Cc3ccc(F)cc3F)c2)nc2c1N(C)C(=O)[C@H](C)N2C [Compound 29, (7S)-2-(((1-(2,4-difluorobenzyl)-1H-pyrazol-4-yl)methyl)amino)-4,5,7,8-tetramethyl-7,8-dihydropteridin-6(5H)-one]"
4,300 to 1000 nM,"Cc1nc(NCc2cnn(Cc3ccc(N(C)C)nc3)c2)nc2c1NC(=O)[C@H](C)N2C [Compound 196, (7S)-2-(((1-((6-(dimethylamino)pyridin-3-yl)methyl)-1H-pyrazol-4-yl)methyl)amino)-4,7,8-trimethyl-7,8-dihydropteridin-6(5H)-one]"
5,< 300 nM,"COc1c(F)cc(Cn2cc(CNc3nc(C)c4c(n3)N(C)[C@@H](C3CC3)C(=O)N4)cn2)cc1F [Compound 457, (S)-7-cyclopropyl-2-(((1-(3,5-difluoro-4-methoxybenzyl)-1H-pyrazol-4-yl)methyl)amino)-4,8-dimethyl-7,8-dihydropteridin-6(5H)-one]"
6,1000 to 5000 nM,"Cc1nc(N[C@H]2C[C@H](Nc3cc(F)c(F)c(F)c3)C2)nc2c1NC(=O)[C@H](C)N2C [Compound 486, (S)-4,7,8-trimethyl-2-((trans-3-((3,4,5-trifluorophenyl)amino)cyclobutyl)amino)-7,8-dihydropteridin-6(5H)-one]"
7,< 300 nM,"Cc1nc(N[C@H]2C[C@@H](Nc3cc(F)c(F)c(F)c3)C2)nc2c1NC(=O)[C@H](C)N2C [Compound 485, (S)-4,7,8-trimethyl-2-((cis-3-((3,4,5-trifluorophenyl)amino)cyclobutyl)amino)-7,8-dihydropteridin-6(5H)-one]"
8,< 300 nM,"Cc1nc(N[C@H]2C[C@@H](Nc3ccc(C(F)(F)F)cn3)C2)nc2c1NC(=O)[C@H](C(C)C)N2C [Compound 534, (S)-7-isopropyl-4,8-dimethyl-2-((cis-3-((5-(trifluoromethyl)pyridin-2-yl)amino)cyclobutyl)amino)-7,8-dihydropteridin-6(5H)-one]"
9,≥ 5000 nM,"Cc1nc(N[C@H]2C[C@@H](Nc3cc(C(F)(F)F)ncn3)C2)nc2c1NC(=O)[C@H](C)N2C [Compound 552, (S)-4,7,8-trimethyl-2-((cis-3-((6-(trifluoromethyl)pyrimidin-4-yl)amino)cyclobutyl)amino)-7,8-dihydropteridin-6(5H)-one]"
10,< 300 nM,"CN1C(=O)C(C)(C)N(C)c2nc(NCc3cnn(Cc4cnccc4C(F)(F)F)c3)ncc21 [Compound 236, 5,7,7,8-Tetramethyl-2-(((1-((4-(trifluoromethyl)pyridin-3-yl)methyl)-1H-pyrazol-4-yl)methyl)amino)-7,8-dihydropteridin-6(5H)-one]"
11,< 300 nM,"Cc1nc(NCc2cnn([C@H](C)c3ccc(C(F)(F)F)nc3)c2)nc2c1NC(=O)[C@H](C)N2C [Compound 175, (7S)-4,7,8-Trimethyl-2-(((1-((R)-1-(6-(trifluoromethyl)pyridin-3-yl)ethyl)-1H-pyrazol-4-yl)methyl)amino)-7,8-dihydropteridin-6(5H)-one]"
12,< 300 nM,"Cc1nc(NCc2cnn(C(C)c3ccc(F)cc3)c2)nc2c1NC(=O)[C@H](C)N2C (stereo partly drawn) [Compound 382, (7S)-2-(((1-(1-(4-fluorophenyl)ethyl)-1H-pyrazol-4-yl)methyl)amino)-4,7,8-trimethyl-7,8-dihydropteridin-6(5H)-one]"
13,300 to 1000 nM,"Cc1nc(N[C@H]2C[C@H](Sc3ccc(F)cc3)C2)nc2c1NC(=O)[C@H](C)N2C [Compound 303, (7S)-2-((trans-3-((4-fluorophenyl)thio)cyclobutyl)amino)-4,7,8-trimethyl-7,8-dihydropteridin-6(5H)-one]"
14,< 300 nM,"Cc1nc(N[C@H]2C[C@@H](COc3cc(F)c(F)cc3F)C2)nc2c1NC(=O)[C@H](C)N2C [Compound 285, (7S)-4,7,8-trimethyl-2-((cis-3-((2,4,5-trifluorophenoxy)methyl)cyclobutyl)-amino)-7,8-dihydropteridin-6(5H)-one]"
15,< 300 nM,"COCC1(C)C(=O)Nc2c(C)nc(NCc3cnn(Cc4cc(C(F)(F)F)nn4C)c3)nc2N1C (centres unmarked) [Compound 704, 7-(methoxymethyl)-4,7,8-trimethyl-2-(((1-((1-methyl-3-(trifluoromethyl)-1H-pyrazol-5-yl)methyl)-1H-pyrazol-4-yl)methyl)amino)-7,8-dihydropteridin-6(5H)-one]"
16,300 to 1000 nM,"Cc1nc(NC2CN(C(=O)Cn3ccc(C(F)(F)F)n3)C2)nc2c1NC(=O)[C@H](C(C)C)N2C [Compound 595, (S)-7-isopropyl-4,8-dimethyl-2-((1-(2-(3-(trifluoromethyl)-1H-pyrazol-1-yl)acetyl)azetidin-3-yl)amino)-7,8-dihydropteridin-6(5H)-one]"
17,300 to 1000 nM,"Cc1nc(NC2CN(C(=O)c3ccc(OCC(F)(F)F)nc3)C2)nc2c1NC(=O)[C@H](C(C)C)N2C [Compound 615, (S)-7-isopropyl-4,8-dimethyl-2-((1-(6-(2,2,2-trifluoroethoxy)nicotinoyl)azetidin-3-yl)amino)-7,8-dihydropteridin-6(5H)-one]"
18,300 to 1000 nM,"Cc1nc(N[C@H]2C[C@@H](COc3cncc(F)c3)C2)nc2c1NC(=O)[C@H](C)N2C [Compound 263, (7S)-2-((cis-3-(((5-fluoropyridin-3-yl)oxy)methyl)cyclobutyl)amino)-4,7,8-trimethyl-7,8-dihydropteridin-6(5H)-one]"
19,≥ 5000 nM,"Cc1nc(NCc2cnn(C3CCOCC3)c2)nc2c1NC(=O)[C@H](C)N2C [Compound 118, (7S)-4,7,8-trimethyl-2-(((1-(tetrahydro-2H-pyran-4-yl)-1H-pyrazol-4-yl)methyl)amino)-7,8-dihydropteridin-6(5H)-one]"
20,< 300 nM,"CC[C@H]1C(=O)Nc2c(C)nc(N[C@H]3C[C@H](N(C)c4cnc(C(F)(F)F)cn4)C3)nc2N1C [Compound 682, (S)-7-ethyl-4,8-dimethyl-2-((trans-3-(methyl(5-(trifluoromethyl)pyrazin-2-yl)amino)cyclobutyl)amino)-7,8-dihydropteridin-6(5H)-one]"
21,300 to 1000 nM,"Cc1nc(NCc2ccn(Cc3ccc(C(F)(F)F)nc3)n2)nc2c1NC(=O)C1(CC(F)(F)C1)N2C [Compound 601, 3,3-difluoro-4′,8′-dimethyl-2′-(((1-((6-(trifluoromethyl)pyridin-3-yl)methyl)-1H-pyrazol-3-yl)methyl)amino)-5′,8′-dihydro-6′H-spiro[cyclobutane-1,7′-pteridin]-6′-one]"

# Same assay, conditions: Homo sapiens, COLO 205, 5 h, R-isomer at C2 (corresponding to C2 S-isomer); Colo 205 TCF/LEF luciferase reporter, 5 h; read-out: TCF reporter Colo205 IC50
row,IC50,SMILES
1,1000 to 5000 nM,CCC[C@@H]1C(=O)Nc2c(C)nc(NCc3cnn(Cc4ccc(C(F)(F)F)nc4)c3)nc2N1C [Compound I-1638]
2,300 to 1000 nM,CCC[C@@H]1C(=O)N(C)c2cnc(NCc3cnn(Cc4ccc(F)cc4)c3)nc2N1C [Compound I-984]

# From patent publication US20230312587A1, “PTERIDINONE COMPOUNDS AND USES THEREOF” (Vertex Pharmaceutical Incorporated, priority 2018, published 2023)
